Columns and labels:
[1] = test system: PPV; experiment: Inactivation of PPV, infectiousness titration; format: cell-based, Porcine parvovirus
[2] = test system: IBRV; experiment: Inactivation of IBRV, infectiousness titration; format: cell-based, Infectious bovine rhinotracheitis virus; settings: for Titer reduction / Treatment titer: 45° C.
[3] = test system: BVDV; experiment: Inactivation of BVDV, infectiousness titration; format: cell-based, Bovine viral diarrhoea virus; settings: Venimmun + BVDV; Acriflavine 0.001 mg/ml; 37° C.; 3 h
[4] = test system: CPV; experiment: Inactivation of CPV in protein solutions, infectiousness titration; format: cell-based, Canine parvovirus; settings: Acriflavine 0.001 mg/ml
[5] = test system: Haemate ® Factor VIII; experiment: Clotting activity of Haemate after virus inactivation; format: biochemical; settings: for Activity (clotting activity): Haemate ® Factor VIII, 3 hours 37° C.
[6] = target: Beriplex ® Factor II (Homo sapiens, UniProt P00734); experiment: Clotting activity of Beriplex after virus inactivation; format: biochemical; settings: 3 hours 37° C.
[7] = test system: PI3 virus; experiment: Inactivation of PI3 virus, infectiousness titration; format: cell-based, Bovine parainfluenza 3 virus; settings: 37° C.; for Virus inactivation: EME medium
[8] = test system: BPV; experiment: Inactivation of BPV, infectiousness titration; format: cell-based, Bovine parvovirus; settings: for Virus inactivation: BPV, 45° C.
[9] = test system: envelope-containing and nonenveloped virus species; format: cell-based
[10] = Beriplex + PPV, Acriflavine 0.001 mg/ml, 30° C., 0 h
[11] = Beriplex + PPV, Acriflavine 0.001 mg/ml, 30° C., 1 h
[12] = Beriplex + PPV, Acriflavine 0.001 mg/ml, 30° C., 2 h
[13] = Beriplex + PPV, Acriflavine 0.001 mg/ml, 30° C., 3 h
[14] = Beriplex + PPV, Acriflavine 0.001 mg/ml, 37° C., 3 h
[15] = Haemate + PPV, Acriflavine 0.001 mg/ml, 37° C., 3 h
[16] = Beriplex + PPV, BACI 0.001 mg/ml, 30° C., 0 h
[17] = Beriplex + PPV, BACI 0.001 mg/ml, 30° C., 1 h
[18] = Beriplex + PPV, BACI 0.001 mg/ml, 30° C., 2 h
[19] = Beriplex + PPV, BACI 0.001 mg/ml, 30° C., 3 h
[20] = Beriplex + PPV, BACI 0.01 mg/ml, 37° C., 0 h
[21] = Beriplex + PPV, BACI 0.01 mg/ml, 37° C., 1 h
[22] = Beriplex + PPV, BACI 0.01 mg/ml, 37° C., 2 h
[23] = Beriplex + PPV, BACI 0.01 mg/ml, 37° C., 3 h

3,6-diamino-10-methylacridinium, chloride and 3,6-acridineidiamine [Acriflavine]
Titer reduction [1, 10]: 0 log10/ml
Treatment titer [1, 10]: 4.8 log10/ml
Titer reduction [1, 11]: 1.0 log10/ml
Treatment titer [1, 11]: 3.6 log10/ml
Titer reduction [1, 12]: 1.7 log10/ml
Treatment titer [1, 12]: 2.9 log10/ml
Titer reduction [1, 13]: ≧3.3 log10/ml
Treatment titer [1, 13]: ≦1.5 log10/ml
Titer reduction [1, 14]: ≧3.3 log10/ml
Treatment titer [1, 14]: ≦1.5 log10/ml
Titer reduction [1, 15]: ≧3.8 log10/ml
Treatment titer [1, 15]: ≦1.5 log10/ml
Virus inactivation ([2]; 37° C., 2 hours): 3.3 log10/ml
Titer reduction [3]: ≧6.0 log10/ml
Treatment titer [3]: 0 log10/ml
Titer reduction ([4]; FCS + CPV, 37° C., 3 h): 3.5 log10/ml
Treatment titer ([4]; FCS + CPV, 37° C., 3 h): 3.4 log10/ml
Titer reduction ([4]; FCS + CPV, 45° C., 0 h): 0 log10/ml
Treatment titer ([4]; FCS + CPV, 45° C., 0 h): 6.8 log10/ml
Titer reduction ([4]; FCS + CPV, 45° C., 1 h): 2.0 log10/ml
Treatment titer ([4]; FCS + CPV, 45° C., 1 h): 4.8 log10/ml
Titer reduction ([4]; FCS + CPV, 45° C., 2 h): 3.3 log10/ml
Treatment titer ([4]; FCS + CPV, 45° C., 2 h): 3.5 log10/ml
Titer reduction ([4]; FCS + CPV, 45° C., 3 h): 4.2 log10/ml
Treatment titer ([4]; FCS + CPV, 45° C., 3 h): 2.8 log10/ml
Titer reduction ([4]; Venimmun + CPV, 37° C., 3 h): 3.0 log10/ml
Treatment titer ([4]; Venimmun + CPV, 37° C., 3 h): 3.9 log10/ml
Activity (clotting activity) ([5]; A 0.001 mg/ml): 16.8 IU/ml
Activity (clotting activity) ([5]; A 0.002 mg/ml): 18.9 IU/ml
Activity (clotting activity) ([6]; A 0.001 mg/ml): 50.0 IU/ml
Activity (clotting activity) ([6]; A 0.002 mg/ml): 48.8 IU/ml

Benzalkonium chloride [BACI]
Virus inactivation ([7]; BACI 0.005 mg/ml, 0-0.03 h): ≧5.9 log10/ml
Virus inactivation ([7]; BACI 0.0125 mg/ml, 0-0.03 h): 0.5 log10/ml
Virus inactivation ([7]; BACI 0.0125 mg/ml, 1 h): 1.3 log10/ml
Virus inactivation ([7]; BACI 0.025 mg/ml, 0-0.03 h): 1.4 log10/ml
Virus inactivation ([7]; BACI 0.025 mg/ml, 1 h): ≧5.3 log10/ml
Virus inactivation ([7]; BACI 0.05 mg/ml, 1 h): ≧5.3 log10/ml
Virus inactivation ([7]; BACI 0.1 mg/ml, 0-0.03 h): ≧5.9 log10/ml
Virus inactivation ([7]; BACI 0.1 mg/ml, 1 h): ≧5.3 log10/ml
Inactivation of PI3 virus, in words ([7]; high doses of BACI (0.1 mg/ml, 0.05 mg/ml), time needed to mix, sample and titrate): infectious virus was no longer detectable
Virus inactivation ([8]; BACI 0.01 mg/ml, 1 hour): 0 log10/ml
Virus inactivation ([8]; BACI 0.01 mg/ml, 2 hours): 0 log10/ml
Virus inactivation ([8]; BACI 0.05 mg/ml, 1 hour): 0 log10/ml
Virus inactivation ([8]; BACI 0.05 mg/ml, 2 hours): 0 log10/ml
Inactivation of BPV, in words ([8]; test conditions of Table 2, 45° C., 1 or 2 hours): not inactivated
Titer reduction [1, 16]: 0 log10/ml
Treatment titer [1, 16]: 4.8 log10/ml
Titer reduction [1, 17]: 0 log10/ml
Treatment titer [1, 17]: 4.8 log10/ml
Titer reduction [1, 18]: 0 log10/ml
Treatment titer [1, 18]: 4.8 log10/ml
Titer reduction [1, 19]: 0 log10/ml
Treatment titer [1, 19]: 4.6 log10/ml
Titer reduction [1, 20]: 0 log10/ml
Treatment titer [1, 20]: 4.8 log10/ml
Titer reduction [1, 21]: 0 log10/ml
Treatment titer [1, 21]: 4.6 log10/ml
Titer reduction [1, 22]: 0 log10/ml
Treatment titer [1, 22]: 4.6 log10/ml
Titer reduction [1, 23]: 0.2 log10/ml
Treatment titer [1, 23]: 4.6 log10/ml
Activity (clotting activity) ([5]; BACI 0.02 mg/ml): 20.7 IU/ml
Activity (clotting activity) ([6]; BACI 0.02 mg/ml): 61.3 IU/ml
Virus species inactivated, in words [9]: only envelope-containing viruses can be, inactivated

CCOc1ccc2nc3cc(N)ccc3c(N)c2c1 [Ethacridine lactate]
Titer reduction ([2]; 0 h): 0 log10/ml
Treatment titer ([2]; 0 h): 6.5 log10/ml
Titer reduction ([2]; 1 h): 3.7 log10/ml
Treatment titer ([2]; 1 h): 2.0 log10/ml
Titer reduction ([2]; 2 h): ≧2.8 log10/ml
Treatment titer ([2]; 2 h): ≦1.5 log10/ml

Haemate®: Concentrate from clotting factor VIII and Von-Willebrand factor, pasteurized (Behringwerke AG)
Activity decrease of clotting preparation after acridines/benzalkonium chloride inactivation, in words ([5]; Table 7): tolerable

Reference: US6831086B1, “Process for the inactivation of viruses with the aid of acridine derivatives” (ZLB Behring GmbH, priority 1994, dated 2004)
